{
  "source": "patent US9925222B2",
  "about": "“Gut barrier dysfunction treatment and prevention” (ALBERT EINSTEIN COLLEGE OF MEDICINE OF YESHIVA UNIVERSITY, priority 2012, dated 2018)",
  "key": {"human PXR (hPXR)": {"target": "T1, human PXR (hPXR) (Homo sapiens, UniProt O75469)", "T1 sequence (O75469 1-434)": "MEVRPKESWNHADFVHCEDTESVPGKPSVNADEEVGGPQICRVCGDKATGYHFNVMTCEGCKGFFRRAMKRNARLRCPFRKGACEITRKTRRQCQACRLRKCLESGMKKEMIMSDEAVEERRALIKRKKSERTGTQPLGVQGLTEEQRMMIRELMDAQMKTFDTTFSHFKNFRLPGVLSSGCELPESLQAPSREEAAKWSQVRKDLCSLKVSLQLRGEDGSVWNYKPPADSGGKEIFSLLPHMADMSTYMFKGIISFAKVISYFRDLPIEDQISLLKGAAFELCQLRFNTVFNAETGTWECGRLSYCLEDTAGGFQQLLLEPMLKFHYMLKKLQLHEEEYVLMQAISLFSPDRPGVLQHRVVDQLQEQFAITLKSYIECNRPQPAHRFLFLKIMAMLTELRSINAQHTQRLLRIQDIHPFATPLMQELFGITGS", "assay": "In vitro transcription assay, PXR reporter gene (MRP2 luciferase) with hPXR expression plasmid in 293T cells", "procedure": "These assays were performed in 293T cells as previously published (33). In brief, transient transfection by lipofectamine (Invitrogen) were carried out in 293T cells with plasmids expressing human PXR (hPXR), mouse PXR (mPXR), GAL4-FXR, GAL4-LXR, GAL4-PPARγ and mouse CAR (mCAR) with respective reporter plasmids (Tk-MRP2-luciferase, Tk-MH100-luciferase, CYP2B10-luciferase) and Renilla. For TLR4 promoter luciferase transcription assay, TLR4 promoter reporter construct (a gift from Dr. Michael Rehli of University of Regensburg, Germany) was transfected along with human PXR, mouse PU.1 expression plasmids and Renilla. […] The cells were harvested in passive lysis buffer (Promega) and luciferase activity was detected using the dualluciferase reporter assay system from Promega in 20 μl of cell lysate using the Turner Biosystems 20/20 n Luminometer. Assays were performed at least two independent times each in triplicates."}, "[1]": {"target": "T2, hPXR ligand binding domain (LBD) (Homo sapiens, UniProt O75469)", "T2 construct": "purchased Invitrogen", "T2 sequence (O75469 146-433 limits assumed)": "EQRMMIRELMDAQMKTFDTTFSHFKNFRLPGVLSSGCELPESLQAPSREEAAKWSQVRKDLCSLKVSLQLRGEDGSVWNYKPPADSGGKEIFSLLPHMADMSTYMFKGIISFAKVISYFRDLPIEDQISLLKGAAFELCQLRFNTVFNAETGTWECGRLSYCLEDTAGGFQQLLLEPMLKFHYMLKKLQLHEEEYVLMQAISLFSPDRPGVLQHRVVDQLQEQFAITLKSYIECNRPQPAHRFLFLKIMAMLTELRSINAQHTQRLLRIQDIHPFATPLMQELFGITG", "assay": "LanthaScreen TR-FRET PXR competitive binding assay, hPXR LBD", "details": "read-out: EC50 for ligand displacement in hPXR", "procedure": "(§1) A LanthaScreen TR-FRET PXR Competitive Binding Assay was conducted according to the manufacturer's protocol (Invitrogen) as previously published (14). Briefly, serial dilutions of indole 3-propionic acid (diluted in TR-FRET PXR Assay Buffer, Invitrogen) were dispensed into triplicate wells of a black, non-treated 384 well plate (Corning Life Sciences). Subsequently, 5 μl of Fluormone PXR Green was added into each well. Finally, 5 μl of a master mix containing hPXR ligand binding domain (LBD), terbium labeled anti-glutathione S transferase (final concentration 10 nM) and dithiothreitol (final concentration 0.05 mM) was added into each well. For mPXR ligand binding domain, GST tagged mPXR LBD was purified using Glutathione Sepharose 4 Fast Flow beads (GE Health Care) in Poly-Prep Chromatography columns (Bio-Rad). hPXR LBD of the assay kit was replaced with the similar concentrations of mPXR LBD. The content was mixed briefly (10 s) and incubated in dark at room temperature for 1 h. TR-FRET was measured using SpectraMaxR M5 microplate reader (Molecular Devices) with the excitation wavelength of 340 nm and emission wavelengths of 520 and 495 nm. TR-FRET ratio was calculated by dividing the emission signal at 520 nm by emission signal at 495 nm. Data are expressed as percentage TR-FRET ratio. Error bars represent s.e.m of duplicate wells from two separate experiments."}, "[2]": {"target": "T3, mPXR ligand binding domain (Mus musculus, UniProt O54915)", "T3 construct": "made in house", "T3 sequence (O54915 143-430 limits assumed)": "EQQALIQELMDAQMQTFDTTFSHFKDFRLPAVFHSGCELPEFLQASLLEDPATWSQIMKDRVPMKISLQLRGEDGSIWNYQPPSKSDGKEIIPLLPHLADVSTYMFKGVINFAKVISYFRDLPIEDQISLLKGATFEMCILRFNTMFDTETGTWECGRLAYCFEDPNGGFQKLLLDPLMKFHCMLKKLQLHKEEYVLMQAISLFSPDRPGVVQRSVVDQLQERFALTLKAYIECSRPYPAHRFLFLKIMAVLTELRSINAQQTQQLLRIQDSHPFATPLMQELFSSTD", "assay": "LanthaScreen TR-FRET PXR competitive binding assay, mPXR LBD", "details": "read-out: EC50 for ligand displacement in mPXR", "procedure": "as §1"}, "[3]": {"system": "PXR target gene transcription (Mdr-1)", "assay": "PXR target gene (Mdr-1) qPCR in jejunum apical enterocytes after oral IPA", "format": "in vivo, mice", "details": "oral IPA 20 mg/kg; Mdr-1, jejunum apical enterocytes", "experimental": "2.0 μg of total RNA extracted from pooled apical enterocytes with TRIzolR (Invitrogen), were reverse transcribed with random hexamer primers and SuperScript™ III-RT enzyme (Invitrogen). Quantitative PCR (qPCR) reactions using TaqMan universal PCR master mix and TaqMan probes containing FAM as the 5′ reporter fluorochrome and tetramethylrhodamine (MGB) as the 3′ quencher fluorochrome, were performed in triplicate for each sample and analyzed on the ABI Prism 7900HT system. […] Controls include RT-minus RNA samples. PCR reaction conditions for all assays were set at 50° C. for 2 minutes, 95° C. for 10 minutes, followed by 40 cycles of amplification (95° C. for 15 seconds then 60° C. for 1 minute). Experiments were performed at least two independent times each in triplicates."}, "[4]": {"system": "gut permeability to FITC-dextran", "assay": "In vivo FITC-dextran gut permeability assay in germ free mice after oral IPA", "details": "germ free (SWGF) mice; oral IPA 20 mg/kg, four consecutive days", "procedure": "Age and sex-matched mice were orally administered with 0.6 mg/g body weight of an 80 mg/ml solution of FITC-dextran (FD4, Sigma). 5 h later, retro-orbital blood was collected from each mouse. Serum was prepared by allowing the blood to clot by leaving it undisturbed overnight at 4° C. and then subsequently centrifuged at 3000 rpm for 20 minutes. Dilutions of FITC-dextran in PBS were used as a standard curve. Absorption of 50 μl serum was measured at microplate reader with excitation and emission filters set at 490 and 530 nm, respectively (38)."}},
  "data": [
    {"smiles": "O=C(O)CCc1c[nH]c2ccccc12", "note": "[IPA, indole-3-propionic acid]", "values": [
      {"measurement": "EC50", "setting": "human PXR (hPXR)", "result": 120, "unit": "µM"},
      {"measurement": "Emax, hPXR transcription assay", "setting": "human PXR (hPXR); IPA alone, MRP2 luciferase, 293T cells", "result": 6.38, "unit": "fold over control"},
      {"measurement": "hPXR activation in combination with indole", "setting": "human PXR (hPXR); fixed concentration of indole (1 mM), increasing concentrations of metabolite", "result": "significantly activates hPXR"},
      {"measurement": "EC50", "setting": "[1]", "result": 2.1, "unit": "µM"},
      {"measurement": "EC50", "setting": "[2]", "result": 1.1, "unit": "µM"},
      {"measurement": "PXR target gene transcription in vivo", "setting": "[3]", "result": "induces PXR target gene transcription in vivo"},
      {"measurement": "Gut permeability to FITC-dextran", "setting": "[4]", "result": "decreased gut permeability to FITC-dextran"}
    ]}
  ]
}
